Data set [1] in a line: Phase-solubility study (Higuchi–Connors), apparent 1:1 stability constant with HP-β-CD. It counts as physicochemical. The conditions noted are these: complex with HP-β-CD, from the phase solubility diagram, 37 ± 0.5 °C. Here is the method: (§1) The phase solubility study was conducted according with Higuchi and Connors. In detail, an excess of PTA34 or PTA73 was added to 1 mL of solutions containing HP-β-CD in the appropriate concentration (0–45% w/v) in 4 mL vials, with screw caps to avoid evaporation. The obtained mixtures were vigorously vortexed for about 5 min, and the suspensions thus obtained were placed under constant stirring in a thermostat bath at 37 ± 0.5 °C for about 48 h, until the saturation of the system was achieved. Then, each suspension was centrifuged at 13,200 rpm (MIKRO 22 R, Hettich Zentrifugen, Germany) in order to remove the uncomplexed drug and the supernatant was analyzed by spectrophotometry for the quantification of the drug, after appropriate dilution. All determinations were conducted at least in triplicate. The obtained data were used to determine the apparent stability 1:1 constant (K1:1) of the HP-β-CD inclusion complexes with the biphenylnicotinamide derivatives, using the Higuchi and Connors equation: K1:1=slope/S0(1−slope) where slope is the slope of the obtained phase solubility diagrams straight line, and S0 represents PTA34 or PTA73 intrinsic solubility determined in the same way.

Data set [2] deals with AsPC-1 cells. The data set is described as follows: Cell cycle analysis by flow cytometry (PI staining). It counts as cell-based, human. Conditions: AsPC-1, 1 µM in terms of PTA, 24 h. Here is the method: (§2) For the cell cycle analysis, human pancreatic cancer cells were seeded in 60 mm dishes at a density of 500,000/well and incubated for 24 h at 37 °C, with PTA34, PTA73 both complexed and not at concentration 1 µM in terms of PTA’s, and with cyclodextrin alone at concentration equal to 290 µg/mL. Cells were then harvested, washed twice in ice-cold PBS pH 7.4, fixed in 4 mL of 70% ethanol, and stored at -20 °C until analysis. The cell cycle modulation induced by treatments was studied as previously described by propidium iodide (PI) staining; the pellet was resuspended in PBS without Ca^2+ and Mg^2+, containing 1 mg/mL RNase, 0.01% NP40, and 50 ĉg/mL PI (Sigma), and then flow cytometry analysis was performed on Attune NxT acoustic focusing cytometer (Life Technologies). Data were interpreted using the CytExpert software v.1.2, provided by the manufacturer.

Data set [3] concerns Panc-1 cells. Described as above. It counts as cell-based, human. Conditions: PANC-1, 1 µM in terms of PTA, 24 h. Here is the method: as §2
The subject of data set [4] is MIA PaCa-2 cells. The description is as above. It counts as cell-based, human. Conditions: MIA PaCa-2, 1 µM in terms of PTA, 24 h. As to the method: as §2
Data set [5] relates to AsPC-1 cells. Put plainly: MTT cell proliferation assay. It counts as cell-based. The conditions noted are these: Homo sapiens, ASPC1, AsPC-1, 72 h, concentration in terms of PTA, ± SD. As to the method: (§3) Human pancreatic ductal adenocarcinoma (PDAC) PANC-1 cells, human pancreas adenocarcinoma ascites metastasis cells AsPC-1, and undifferentiated human pancreatic carcinoma MIAPaCa-2 cells, were purchased from ATCC®. PANC-1 and AsPC-1 cells were cultured in Dulbecco’s modified Eagle’s medium (DMEM), supplemented with fetal bovine serum (FBS), to a final concentration of 10%, L-glutamine 1% (v/v), and penicillin/streptomycin 1% (v/v). MIA PaCa-2 cells were grown in Roswell Park Memorial Institute (RPMI) medium, supplemented as above, and in addition with horse serum, to a final concentration of 2.5%. Cells were maintained in a humid atmosphere of 95% air and 5% CO2 at 37 °C. All materials for cell culturing were purchased from EuroClone (Pero, Milan, Italy).
(§4) The 3-(4,5-dimethylthiazol-2-yl)-2,5- diphenyltetrazoliumbromide (MTT) assay was performed as previously described to investigate the effect of hydroxy-propil-β-cyclodextrin-complexed PTA34 and PTA73 (PTA34/HP-β-CD and PTA73/HP-β-CD, respectively) on cell viability of PANC-1, AsPC-1, and MIA PaCa-2 cell lines. The same uncomplexed compounds and HP-β-CD alone were also tested as reference compounds. Untreated cells were used as a […]. In particular, cells were seeded in 96 well plates at a density of 5000 cells/well, incubated for 24 h in culturing medium, and subsequently treated for 72 h, with compounds at 0.01–10 µM concentrations range, in terms of PTA34 or PTA73, included. HP-β-CD–cyclodextrin alone was tested in the concentrations range corresponding to that present in the complex, namely 2.9–2900 µg/mL. After the incubation period 10 µL of a 0.5% (w/v) MTT/PBS solution were added to each well, and the incubation was prolonged further for 2 h. After this period, medium was removed and replaced with 100 µL of DMSO. The absorbance in each well was measured by a microplate reader (MULTISKAN Sky, ThermoScientific). The results are shown as dose/effect plots of the mean of three different experiments. The IC50 was defined as the drug concentration yielding a fraction of affected (no surviving) cells = 0.5, normalized with untreated cells, and was calculated utilizing CalcuSyn v.1.1.1 software (Biosoft, UK).
For orientation: Tetrazolium assays rely on reduction of a dye to a coloured formazan, in cell work by metabolically active cells.

Data set [6] relates to Panc-1 cells. Put plainly: MTT cell proliferation assay. It counts as cell-based. Conditions: Homo sapiens, Panc-1, 72 h, concentration in terms of PTA, ± SD. Here is the method:
as §3, §4

The subject of data set [7] is MIA PaCa-2 cells. The data set is described as follows: MTT cell proliferation assay. Conditions: Homo sapiens, MIA PaCa-2, 72 h, concentration in terms of PTA, ± SD. It counts as cell-based. As to the method: as §3, §4
A short description of data set [8]: Solubility in ultra-pure water and in HP-β-CD solutions at 37 °C. It counts as physicochemical. The conditions noted are these: for solubility: 37 °C, thermodynamic from solid, ultra-pure water, 37 ± 0.5 °C; for Increase in aqueous solubility: HP-β-CD 45% w/v versus water alone. As to the method: Quantitative analysis of PTA34 and PTA73 was carried out by spectrophotometry using a dual-beam UV-VIS Lambda 20 Bio spectrophotometer (Perkin Elmer, Milan, Italy) and quartz cuvettes, with a capacity of 1 mL, using methanol as solvent. In the case of PTA34 the reading was carried out at a wavelength of 320 nm, and a calibration straight line (r^2 = 0.9979), in the concentration range between 0.15 mg/mL (4.45 × 10^−4 mM) and 0.015 mg/mL (4.45 × 10^−5 mM), was obtained. For PTA73 the reading was carried out at a wavelength of 340 nm, and a calibration straight line (r^2 = 0.9999) in the concentration range between 0.16 mg/mL (5.01 × 10^−4 mM) and 0.016 mg/mL (5.01 × 10^−5 mM), was obtained.
as §1

The subject of data set [9] is MIA PaCa-2 cells. The arrangement: method as in PMID 30583077. The conditions noted are these: low doses; cited from earlier work.
Where [10] appears, read: HP-β-CD 0% w/v, read-out: Water solubility (intrinsic solubility, S0).
Where [11] appears, read: read-out: Intrinsic solubility (S0).

Read-outs that look alike come from different tables or passages of the source.

The values below come from publication PMC7576480, “Hydroxy-Propil-β-Cyclodextrin Inclusion Complexes of two Biphenylnicotinamide Derivatives: Formulation and Anti-Proliferative Activity Evaluation in Pancreatic Cancer Cell Models” (International Journal of Molecular Sciences, 2020).

The IC50 is the concentration that gives 50% inhibition. A lower IC50 goes with greater potency. As usually defined, the solubility is the dissolved amount per volume that the medium holds.

In the case of `O=C(Nc1ccc(-c2ccc(F)cc2)cc1[N+](=O)[O-])c1cccnc1` [PTA34], in [1], the “1:1 apparent formation (equilibrium) constant, Ks” value is 503.9 M⁻¹. Further, the “Cells arrested in G2/M phase” value in the data set on AsPC-1 cells [2] worked out at 93%; in the data set on Panc-1 cells [3], 57.9%; in the data set with MIA PaCa-2 cells [4] it was 36.7%. In addition, the IC50 with AsPC-1 cells [5] amounted to 1900 ± 300 nM; in the data set on Panc-1 cells [6] it was 2500 ± 500 nM; with MIA PaCa-2 cells [7] it was 310 ± 40 nM. The solubility in data set [8] (setting [10]) amounted to 1.95 ± 0.35 µg/mL; in [8] (setting [11]), 5.78 µM. Further, in [8], the “Increase in aqueous solubility” value is listed as “about 150 times”. Further, the Antitumor activity result in the data set on MIA PaCa-2 cells [9] is on record as “remarkable antitumor activity”.

Regarding `O=C(Nc1ccc(-c2ccccc2)cc1[N+](=O)[O-])c1cccnc1` [PTA73], the “1:1 apparent formation (equilibrium) constant, Ks” value in data set [1] was determined as 369.2 M⁻¹. Also, the “Cells arrested in G2/M phase” value in the data set with AsPC-1 cells [2] was determined as 94.1%; in the data set with Panc-1 cells [3] it was 64.9%; with MIA PaCa-2 cells [4] it was 45.2%. Further, the IC50 stood at 2300 ± 600 nM with AsPC-1 cells [5], 1500 ± 200 nM in the data set with Panc-1 cells [6] and 6 ± 2 nM with MIA PaCa-2 cells [7]. In addition, the solubility in data set [8] (setting [10]) was determined as 7.16 ± 0.34 µg/mL; in data set [8] (setting [11]) it was 22.4 µM. Moreover, in data set [8], the “Increase in aqueous solubility” value is reported as about 106 times. In addition, the Antitumor activity result with MIA PaCa-2 cells [9] was “remarkable antitumor activity”.
